Test results reported in patent US9944677B2, “Selective inhibitor of angiotensin II” (GEORGETOWN UNIVERSITY, priority 2013, dated 2018).
Ends that are not written are not given here.

System: rats
Assay: Behavioral arousal, locomotion and grooming behavior
Details: rat, in vivo

MAGILSG [PEP7, MAGILSG (SEQ ID NO: 1)]
Effect on behavioral arousal, locomotion and grooming behavior: did not have an effect
